Laboratory results published in PMC6283615, “Anilinoquinoline based inhibitors of trypanosomatid proliferation” (PLoS Neglected Tropical Diseases, 2018).
Values after ≈ are worked out from the molar mass of the structure shown. Read-outs that look alike come from different tables or passages of the source.

Assays:
[1] = Rat hepatocyte intrinsic clearance; type: in vitro ADME; conditions: for hepatocyte CLint: hepatocytes
[2] = Human plasma protein binding; type: in vitro ADME; conditions: for fraction unbound: read-out: Human PPB (converted)
L. major amastigote = assay: L. major intracellular amastigote luciferase assay in RAW 264.7 macrophages; type: cell-based, Leishmania major; conditions: intracellular amastigotes in RAW 264.7 macrophages, 96 h
Protocol: Amastigote assays were performed using pLEXSY-hyg2-luciferase L. major transfected promastigotes and the murine RAW 264.7 macrophage cell line (ATCC TIB-71, Manassas, VA). Briefly, luciferase-expressing promastigotes of each Leishmania species were generated by adding a luciferase encoding region to the pLEXSY-hyg2 vector (Jena Biosciences, Germany) as described. One μg of the linearized pLEXSY-hyg2-luciferase vector were electroporated (480 V, 13 Ω, and 500 μF) into 4×10^7 Leishmania promastigotes. Selection for stable promastigote transfectants was carried out using hygromycin B (100 μg/mL). RAW 264.7 macrophages were maintained in growth medium (Dulbecco’s Modified Eagle’s Medium supplemented with heat-inactivated 10% FBS (Life Technologies)). Cells were harvested and resuspended in growth medium at 2.0×10^5 cells/mL, and 1×10^4 cells/well were dispensed (final volume 50 μL) in each well of a 384 well tissue-culture treated white plate using a EVO Freedom liquid handling system (Tecan, Durham, NC). Plates were incubated at 37°C in 5% CO2 for 24 h after which the culture medium was removed from each well using the EVO Freedom liquid handler. Metacyclic phase pLEXSY-hyg2-luciferase-Leishmania promastigotes (MOI = 1:10 L. major) were added to each assay plate well and allowed to infect the RAW 264.7 macrophages. After an overnight incubation, the growth medium was aspirated and each well was washed three times with 40 μL of fresh growth medium to remove non-internalized promastigotes. After the third wash, 69.2 μL of growth medium was added to each well. Compound dilutions (final concentration ranges 0.5–10,000 ng/mL) were generated and dispensed using the liquid handling system. Compound treated plates were incubated at 37°C in 5% CO2 for 96 h. After incubation, 7.5 μL of a luciferin solution (Caliper Life Science, Waltham, MA) diluted to 150 μg/mL was added to each well, and the plates were incubated for 30 min at 37°C in the dark. Data were captured using an Infinite M200 plate reader (Tecan). EC50s were generated for each concentration response test using GraphPad Prism software 6.0.

LogD7.4 = type: physicochemical; conditions: pH 7.4
[3] = test system: T. cruzi amastigote (Tulahuen strain expressing β-galactosidase); assay: Intracellular T. cruzi assay in 3T3 cells (beta-galactosidase, 96 h); type: cell-based, Trypanosoma cruzi; conditions: read-out: T. cruzi amastigote EC50
Protocol: In a 96-well plate, 5×10^4 3T3 cells in DMEM without phenol red supplemented with 2% FBS were added to each well. Cells were incubated for 2 h to allow for attachment. Compounds were added in triplicates at 50 μM and in serial dilutions 1:2. To each well, 5×10^4 T. cruzi trypomastigotes (Tulahuen strain expressing β-galactosidase) were added and incubated at 37°C, 5% CO2 for 96 h. Following incubation, 50 μL of 500 μM chlorophenol Red-β-D-galactopyranoside (CPRG) in phosphate-buffered saline with 0.5% NP40 was added to each well and incubated at 37°C, 5% CO2 for 4 h. Absorbance was read at 590–595 nm.

[4] = test system: T. b. brucei (strain 427); assay: T. b. brucei proliferation assay (PrestoBlue, 48 h); type: cell-based, Trypanosoma brucei brucei
Protocol: The assay was performed following a previously reported procedure. Briefly, in a 96-well plate, compounds were added in triplicates at 50 μM and in serial dilutions 1:2 in HMI-9 medium. To each well, 100 μL of 2.5×10^3 T. b. brucei (strain 427, received as a gift from Dr. C. C. Wang at UCSF) in HMI-9 medium was were added and incubated at 37°C, 5% CO2 for 48 h. Following incubation, 20 μL of PrestoBlue were added to each well and incubated for additional 4 h. Fluorescence was read at 530 nm excitation and 590 nm emission.

[5] = Human liver microsome intrinsic clearance; type: in vitro ADME; conditions: for microsomal CLint: liver microsomes
Aqueous solubility = type: physicochemical
HepG2 cells = assay: Drug toxicity to HepG2 cells (MTT, 48 h); type: cell-based, human; conditions: tested concentration ranges based on compound solubility
Protocol: HepG2 cells were cultured in complete Minimal Essential Medium prepared by supplementing MEM with 0.19% sodium bicarbonate, 10% heat inactivated FBS, 2 mM L-glutamine, 0.1 mM MEM non-essential amino, 0.009 mg/mL insulin, 1.76 mg/mL bovine serum albumin, 20 units/mL penicillin–streptomycin, and 0.05 mg/mL gentamycin. HepG2 cells cultured in complete MEM were first washed with 1× Hank’s Balanced Salt Solution (Invitrogen #14175095), trypsinized using a 0.25% trypsin/EDTA solution, assessed for viability using trypan blue, and resuspended at 250,000 cells/mL. Using a Tecan EVO Freedom robot, 38.3 μL of cell suspension were added to each well of clear, cell culture-treated 384-well microtiter plates for a final concentration of 9570 liver cells per well, and plated cells were incubated overnight in 5% CO2 at 37°C. Drug plates were prepared with the Tecan EVO Freedom using sterile 96 well plates containing twelve duplicate 1.6-fold serial dilutions of each test compound suspended in DMSO. 4.25 μL of diluted test compound was then added to the 38.3 μL of media in each well providing a […] final dilution of compound. Compounds were tested from a range of 57 ng/mL to 10,000 ng/mL for all assays. Mefloquine was used as a plate control for all assays with a concentration ranging from 113 ng/mL to 20,000 ng/mL. After a 48 h incubation period, 8 μL of a 1.5 mg/mL solution of MTT diluted in complete MEM media was added to each well. All plates were subsequently incubated in the dark for 1 h at room temperature. After incubation, the media and drugs in each well was removed by shaking the plate over sink, and the plates were left to dry in a fume hood for 15 mins. Next, 30 μL of isopropanol acidified by addition of HCl at a final concentration of 0.36% was added to dissolve the formazan dye crystals created by reduction of MTT. Plates are put on a 3-D rotator for 15–30 mins. Absorbance was determined in all wells using a Tecan iControl 1.6 Infinite plate reader.

[6] = Trypanosoma cruzi, TULAHUEN, NIH3T3, 96 h
[7] = intracellular in 3T3 cells, 96 h

SMILES	hepatocyte CLint [1] [µL/min/1e6 cells]	fraction unbound [2]	EC50 (L. major amastigote; Leishmania major, RAW264.7) [nM]	logD (LogD7.4)	EC50 [3, 6] [µM]	EC50 ([4]; Trypanosoma brucei) [nM]	microsomal CLint [5] [µL/min/mg]	solubility (Aqueous solubility) [µM]	other results
Cc1ccc(Nc2ccnc3cc(-c4ccc(S(=O)(=O)N5CCN(C)CC5)cc4)ccc23)cn1 [Compound 11]	49	0.08	3900	3.7	9.9	690	400		
CN1CCN(S(=O)(=O)c2ccc(-c3ccc4c(Nc5cccc(Cl)c5)ccnc4c3)cc2)CC1 [Compound 7]	15	< 0.01	3400		> 50	> 50000	150		
CN1CCN(c2ccc(Nc3ccc4c(Nc5cnccn5)ccnc4c3)cc2)CC1 [NEU-2096]									Rat Hepatocyte CLint [1]: 10 μL/min/10^6 cells; Human PPB [2]: 88%; EC50 (L. major amastigote): 7900 nM; LogD7.4 (LogD7.4): 2.2
Cc1ccc(Nc2ccnc3cc(-c4ccc(S(=O)(=O)N5CCN(C)CC5)cc4)ccc23)cc1Cl [Compound 8]			2400		> 50	650	290		
C[C@@H]1[C@H](O)[C@@H](C)/C=C/C=C/C=C/C=C/C=C/C=C/C=C/[C@H](O[C@@H]2O[C@H](C)[C@@H](O)[C@H](N)[C@@H]2O)C[C@@H]2O[C@](O)(C[C@@H](O)C[C@@H](O)[C@H](O)CC[C@@H](O)C[C@@H](O)CC(=O)O[C@H]1C)C[C@H](O)[C@H]2C(=O)O [Amphotericin B, reference compound]			36		0.48				
CN1CCN(c2ccnc(Nc3ccc4c(Nc5cnccn5)ccnc4c3)n2)CC1 [NEU-2091]									Rat Hepatocyte CLint [1]: 9.3 μL/min/10^6 cells; LogD7.4 (LogD7.4): 2.8; EC50 [3, 7]: > 20 µM
CN1CCN(c2nccc(Nc3ccc4c(Nc5cnccn5)ccnc4c3)n2)CC1 [NEU-2094]									LogD7.4 (LogD7.4): 2.9; EC50 [3, 7]: > 50 µM
CN1CCN(c2ccc(Nc3ccc4c(Nc5ccc(OCc6cccc(F)c6)c(Cl)c5)ccnc4c3)cc2)CC1 [Compound 17]			1200		2.1	120			
c1cnc(Nc2ccnc3cc(-c4cn[nH]c4)ccc23)cn1 [NEU-2088]								1 (≈ 0.288 µg/mL)	Rat Hepatocyte CLint [1]: 5 μL/min/10^6 cells; HepG2 TC50 (HepG2 cells): 4.5 µM; EC50 (L. major amastigote): 3000 nM; LogD7.4 (LogD7.4): 2.6; EC50 [3, 7]: > 50 µM; EC50 [4]: 290 nM; Human Liver Microsome CLint [5]: 130 µL/min/mg
CN1CCN(c2ncc(Nc3ccc4c(Nc5ccc(OCc6cccc(F)c6)c(Cl)c5)ccnc4c3)cn2)CC1 [Compound 18]			870		2.7	160			
COc1ccc(Nc2ccnc3cc(Nc4nccc(N5CCN(C)CC5)n4)ccc23)cc1Cl [NEU-2090]								570 (≈ 271 µg/mL)	Rat Hepatocyte CLint [1]: 7.2 μL/min/10^6 cells; HepG2 TC50 (HepG2 cells): 7.6 µM; Human PPB [2]: 99%; EC50 (L. major amastigote): 2300 nM; LogD7.4 (LogD7.4): 3.3; EC50 [3, 7]: > 20 µM; EC50 [4]: 350 nM
CN1CCN(c2ccnc(Nc3ccc4c(Nc5ccc(OCc6cccc(F)c6)c(Cl)c5)ccnc4c3)n2)CC1 [Compound 19]	4.6		2500	4.7	2.7	120	21	1 (≈ 0.57 µg/mL)	
CN1CCN(S(=O)(=O)c2ccc(-c3ccc4c(Nc5ccc(OC(F)(F)F)cc5)ccnc4c3)cc2)CC1 [Compound 10]	79	< 0.01	780	4.5	1.4	270	280		
COc1cnc(Nc2ccnc3cc(-c4ccc(S(=O)(=O)N5CCN(C)CC5)cc4)ccc23)cn1 [Compound 3]		0.03	19000	4.2	9.7	620		3.2 (≈ 1.57 µg/mL)	
COc1ccc(Nc2ccnc3cc(-c4cn[nH]c4)ccc23)cc1Cl [NEU-2087]								2 (≈ 0.702 µg/mL)	Rat Hepatocyte CLint [1]: 5 μL/min/10^6 cells; HepG2 TC50 (HepG2 cells): 23 µM; Human PPB [2]: 97%; EC50 (L. major amastigote): 29000 nM; LogD7.4 (LogD7.4): 3.5; EC50 [3, 7]: > 50 µM; EC50 [4]: 910 nM; Human Liver Microsome CLint [5]: 8 µL/min/mg
CN1CCN(c2nccc(Nc3ccc4c(Nc5ccc(OCc6cccc(F)c6)c(Cl)c5)ccnc4c3)n2)CC1 [Compound 20]			1200		4.3	98			
CN1CCN(S(=O)(=O)c2ccc(-c3ccc4c(Nc5ccc(C(F)(F)F)nc5)ccnc4c3)cc2)CC1 [Compound 12]	260	0.02	6200	4.4	5.4	700	390		
COc1ccc(Nc2ccnc3cc(-c4ccc(S(=O)(=O)N5CCN(C)CC5)cc4)ccc23)cc1 [Compound 9]	58		4400	4.2	1.9	520	350	9 (≈ 4.4 µg/mL)	
COc1ncc(Nc2ccnc3cc(-c4ccc(S(=O)(=O)N5CCN(C)CC5)cc4)ccc23)cn1 [Compound 2]		0.12	3100	3.1	> 50	2500		7.3 (≈ 3.58 µg/mL)	
CN1CCN(S(=O)(=O)c2ccc(-c3ccc4c(Nc5ccc(Cl)cn5)ccnc4c3)cc2)CC1 [Compound 5]		< 0.01	2100		2.8	270		< 1	
CN1CCN(S(=O)(=O)c2ccc(-c3ccc4c(Nc5cnccn5)ccnc4c3)cc2)CC1 [Compound 4]		0.06	20000	3.2	16	910		4.2 (≈ 1.93 µg/mL)	
CN1CCN(S(=O)(=O)c2cccc(-c3ccc4c(Nc5ccc(OCc6cccc(F)c6)c(Cl)c5)ccnc4c3)c2)CC1 [Compound 13]	24	< 0.01	200	4.8	> 50	480	110	< 1	
